Assay results: patent US11873291B2, “Quinoline cGAS antagonist compounds” (ImmuneSensor Therapeutics, Inc., priority 2020, dated 2024)

Experiments:
[1] = molecular target: T1, recombinant human cGAS (aa147-522) (Homo sapiens, UniProt Q8N884); experiment: In vitro inhibition assay of cGAS activity (ATP consumption, KinaseGlo Max); type: biochemical; conditions: Table 3, read-out: cGAS Inhibition Results IC50
T1 construct: recombinant human cGAS (aa147-522); His6-SUMO (cleaved yes); made in house; host or cells: E. coli BL21/pLys
T1 sequence (Q8N884 147-522): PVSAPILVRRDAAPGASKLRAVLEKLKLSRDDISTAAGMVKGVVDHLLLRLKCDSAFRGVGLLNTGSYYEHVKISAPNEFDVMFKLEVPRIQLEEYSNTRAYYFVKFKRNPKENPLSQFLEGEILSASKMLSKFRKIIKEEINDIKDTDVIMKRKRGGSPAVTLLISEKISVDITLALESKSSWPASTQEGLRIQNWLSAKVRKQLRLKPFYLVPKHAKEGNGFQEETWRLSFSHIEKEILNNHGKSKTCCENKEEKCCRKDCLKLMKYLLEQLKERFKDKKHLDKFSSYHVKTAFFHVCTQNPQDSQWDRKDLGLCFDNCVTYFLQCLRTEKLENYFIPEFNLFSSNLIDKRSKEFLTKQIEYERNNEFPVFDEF
In short: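 IC50 came from plotting % ATP consumption against log compound concentration, with leftover ATP detected by KinaseGlo Max chemiluminescence. Reactions ran 20 min at 37 °C with 1.5 μg/mL human cGAS (aa147-522), 6.6 μM ATP, 0.1 mM GTP and 0.01 mg/mL DNA at pH 7.5.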

[2] = tested on: cGAS activity in Reporter THP1 cell line; experiment: Cellular assay to measure cGAS activity: ISRE-Gaussia luciferase reporter THP1 cells transfected with ISD; type: cell-based; conditions: Homo sapiens, THP-1, untitled table after Table 4 (continuation)
In short: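 THP1 ISRE-Gaussia luciferase reporter cells (0.3×10^6/well) pre-incubated 5 min with compound serial dilutions, then lipofectamine-transfected with 2 μg/mL ISD (45 bp DNA) or mock. Secreted luciferase read 16 h later with 1 μM coelenterazine at pH 6.5; IC50 from fold increase over mock. Specificity counter-screen used 2 μg/mL poly(I:C) or Sendai virus 50 Unit/mL.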

IC50 [1] [nM]	IC50 [2] [nM]	SMILES
2000 to 30000	> 10000	COC(=O)CCC(=O)NNc1cc(-n2ccnc2)c2ccc(Cl)c(Cl)c2n1 [I-758]
< 2000	> 10000	O=C(O)CCC(=O)NNc1cc(-n2ccnc2)c2ccc(Cl)c(Cl)c2n1 [I-759]
< 2000	> 10000	NC(=O)COC[C@@H]1CCCN1c1cc(-n2ccnc2)c2ccc(Cl)c(Cl)c2n1 [I-760, (S)-2-((1-(7,8-dichloro-4-(1H-imidazol-1-yl)quinolin-2-yl)pyrrolidin-2-yl)methoxy)acetamide]
< 2000	> 10000	O=C(COC[C@@H]1CCCN1c1cc(-n2ccnc2)c2ccc(Cl)c(Cl)c2n1)NO [I-761]
< 2000	> 10000	N#CNC(=O)COC[C@@H]1CCCN1c1cc(-n2ccnc2)c2ccc(Cl)c(Cl)c2n1 [I-762]
< 2000	> 10000	CC(=O)N[C@H]1CCN(c2cc(-n3ccnc3)c3ccc(Cl)c(Cl)c3n2)C1 [I-764, (S)—N-(1-(7,8-dichloro-4-(1H-imidazol-1-yl)quinolin-2-yl)pyrrolidin-3-yl)acetamide]
2000 to 30000	2000 to 10000	N[C@H]1CCN(c2cc(-n3ccnc3)c3ccc(Cl)c(Cl)c3n2)C1 [I-765, (S)-1-(7,8-dichloro-4-(1H-imidazol-1-yl)quinolin-2-yl)pyrrolidin-3-amine]
< 2000	< 2000	O=C(O)CCOC[C@@H]1CCN(c2cc(-n3ccnc3)c3ccc(Cl)c(Cl)c3n2)C1 [I-773]
< 2000	2000 to 10000	O=C1C[C@@H]2[C@@H](CCN2c2cc(-n3ccnc3)c3ccc(Cl)c(Cl)c3n2)O1 [I-774, (3aR,6aR)-4-(7,8-dichloro-4-(1H-imidazol-1-yl)quinolin-2-yl)hexahydro-2H-furo[3,2-b]pyrrol-2-one]
< 2000	2000 to 10000	O=C1OCC2CCN(c3cc(-n4ccnc4)c4ccc(Cl)c(Cl)c4n3)C12 (stereo not shown) [I-775, 1-(7,8-dichloro-4-(1H-imidazol-1-yl)quinolin-2-yl)hexahydro-6H-furo[3,4-b]pyrrol-6-one]
< 2000	> 10000	O=C(O)C[C@H]1CCCN1c1cc(-n2ccnc2)c2ccc(Cl)c(Cl)c2n1 [I-776]
2000 to 30000	> 10000	C[C@@H]1CN(c2cc(-n3ccnc3)c3ccc(Cl)c(Cl)c3n2)[C@H](C(=O)O)[C@H]1O [I-778]
2000 to 30000	> 10000	CCOC(=O)[C@@H]1[C@@H](O)[C@H](C)CN1c1cc(-n2ccnc2)c2ccc(Cl)c(Cl)c2n1 [I-779]
2000 to 30000	> 10000	C[C@H]1[C@@H](C(=O)O)N(c2cc(-n3ccnc3)c3ccc(Cl)c(Cl)c3n2)C[C@@H]1O [I-780]
< 2000	> 10000	O=C(O)C[C@@H]1[C@H](O)CCN1c1cc(-n2ccnc2)c2ccc(Cl)c(Cl)c2n1 [I-781, 2-((2R,3R)-1-(7,8-dichloro-4-(1H-imidazol-1-yl)quinolin-2-yl)-3-hydroxypyrrolidin-2-yl)acetic acid]
< 2000	> 10000	O=C(O)CCNC(=O)[C@@H]1[C@@H](O)CCN1c1cc(-n2ccnc2)c2ccc(Cl)c(Cl)c2n1 [I-784, 3-((2S,3S)-1-(7,8-dichloro-4-(1H-imidazol-1-yl)quinolin-2-yl)-3-hydroxypyrrolidine-2-carboxamido)propanoic acid]
< 2000	> 10000	O=C(O)C[C@@H]1[C@@H](O)CCN1c1cc(-n2ccnc2)c2ccc(Cl)c(Cl)c2n1 [I-785, 2-((2R,3S)-1-(7,8-dichloro-4-(1H-imidazol-1-yl)quinolin-2-yl)-3-hydroxypyrrolidin-2-yl)acetic acid]
< 2000	2000 to 10000	COC(=O)C[C@@H]1[C@@H](O)CCN1c1cc(-n2ccnc2)c2ccc(Cl)c(Cl)c2n1 [I-786, methyl 2-((2R,3S)-1-(7,8-dichloro-4-(1H-imidazol-1-yl)quinolin-2-yl)-3-hydroxypyrrolidin-2-yl)acetate]
< 2000	2000 to 10000	CCOC(=O)CNC(=O)C[C@@H]1[C@@H](O)CCN1c1cc(-n2ccnc2)c2ccc(Cl)c(Cl)c2n1 [I-787, ethyl (2-((2R,3S)-1-(7,8-dichloro-4-(1H-imidazol-1-yl)quinolin-2-yl)-3-hydroxypyrrolidin-2-yl)acetyl)glycinate]
< 2000	> 10000	O=C(O)CNC(=O)C[C@@H]1[C@@H](O)CCN1c1cc(-n2ccnc2)c2ccc(Cl)c(Cl)c2n1 [I-788, (2-((2R,3S)-1-(7,8-dichloro-4-(1H-imidazol-1-yl)quinolin-2-yl)-3-hydroxypyrrolidin-2-yl)acetyl)glycine]
< 2000	< 2000	O=C(O)CCOC[C@@H]1CCCCN1c1cc(-n2ccnc2)c2ccc(Cl)c(Cl)c2n1 [I-789]
2000 to 30000	> 10000	COC(=O)CCNC(=O)[C@@H]1[C@@H](O)CCN1c1cc(-n2ccnc2)c2ccc(Cl)c(Cl)c2n1 [I-791, methyl 3-((2S,3S)-1-(7,8-dichloro-4-(1H-imidazol-1-yl)quinolin-2-yl)-3-hydroxypyrrolidine-2-carboxamido)propanoate]
< 2000	< 2000	C[C@H]1CCN(c2cc(-n3ccnc3)c3ccc(Cl)c(Cl)c3n2)[C@@H]1COCCC(=O)O [I-792]
< 2000	< 2000	O=C(O)CCOC[C@@H]1C[C@H](C(F)(F)F)CN1c1cc(-n2ccnc2)c2ccc(Cl)c(Cl)c2n1 [I-793]

IC50 [1] [nM]	IC50 [2] [nM]	SMILES
< 2000	< 2000	CC1(C)C[C@@H](COCCC(=O)O)N(c2cc(-n3ccnc3)c3ccc(Cl)c(Cl)c3n2)C1 [I-794]
< 2000	< 2000	C[C@@H]1C[C@@H](COCCC(=O)O)N(c2cc(-n3ccnc3)c3ccc(Cl)c(Cl)c3n2)C1 [I-795]
< 2000	< 2000	CC(C)(C)O[C@@H]1C[C@@H](COCCC(=O)O)N(c2cc(-n3ccnc3)c3ccc(Cl)c(Cl)c3n2)C1 [I-796]
< 2000	< 2000	CO[C@H]1C[C@@H](COCCC(=O)O)N(c2cc(-n3ccnc3)c3ccc(Cl)c(Cl)c3n2)C1 [I-797]
< 2000	> 10000	O=C(O)CCOC[C@@H]1C[C@@H](N2CCOCC2)CN1c1cc(-n2ccnc2)c2ccc(Cl)c(Cl)c2n1 [I-799]
< 2000	< 2000	O=C(O)CCOCC12CC(CN1c1cc(-n3ccnc3)c3ccc(Cl)c(Cl)c3n1)C2 [I-800]
< 2000	< 2000	C=C1C[C@@H](COCCC(=O)O)N(c2cc(-n3ccnc3)c3ccc(Cl)c(Cl)c3n2)C1 [I-801]
< 2000	< 2000	O=C(O)CCOC[C@@H]1C[C@@H](c2ccccc2)CN1c1cc(-n2ccnc2)c2ccc(Cl)c(Cl)c2n1 [I-802]
< 2000	< 2000	O=C(O)CCOC[C@@H]1C[C@@H](C2CCCCC2)CN1c1cc(-n2ccnc2)c2ccc(Cl)c(Cl)c2n1 [I-803]
< 2000	< 2000	O=C(O)CCOC[C@@H]1C[C@H]2C[C@H]2N1c1cc(-n2ccnc2)c2ccc(Cl)c(Cl)c2n1 [I-805]
< 2000	2000 to 10000	O=C(O)CCOC[C@@H]1Cc2ccccc2N1c1cc(-n2ccnc2)c2ccc(Cl)c(Cl)c2n1 [I-806]
< 2000	< 2000	O=C(O)CCOC[C@@H]1C[C@@H]2CCCC[C@@H]2N1c1cc(-n2ccnc2)c2ccc(Cl)c(Cl)c2n1 [I-808]
< 2000	< 2000	C[C@H]1CC[C@@H](COCCC(=O)O)N1c1cc(-n2ccnc2)c2ccc(Cl)c(Cl)c2n1 [I-810]
< 2000	< 2000	C[C@H]1CN(c2cc(-n3ccnc3)c3ccc(Cl)c(Cl)c3n2)C[C@@H]1COCCC(=O)O [I-814]
< 2000	2000 to 10000	O=C(O)C1CCCCC1OC[C@@H]1CCCN1c1cc(-n2ccnc2)c2ccc(Cl)c(Cl)c2n1 (stereo partly shown) [I-815]
< 2000	< 2000	O=C(O)C1CCCC1OC[C@@H]1CCCN1c1cc(-n2ccnc2)c2ccc(Cl)c(Cl)c2n1 (stereo partly shown) [I-816]
< 2000	> 10000	O=C(O)C(O)CC[C@@H]1CCCN1c1cc(-n2ccnc2)c2ccc(Cl)c(Cl)c2n1 (stereo partly drawn) [I-817, 4-((S)-1-(7,8-dichloro-4-(1H-imidazol-1-yl)quinolin-2-yl)pyrrolidin-2-yl)-2-hydroxybutanoic acid]
< 2000	< 2000	O=C(O)COCCC[C@@H]1CCCN1c1cc(-n2ccnc2)c2ccc(Cl)c(Cl)c2n1 [I-820]
2000 to 30000	> 10000	O=C(O)CCOCCOc1cc(-n2ccnc2)c2ccc(Cl)c(Cl)c2n1 [I-828, 3-(2-((7,8-dichloro-4-(1H-imidazol-1-yl)quinolin-2-yl)oxy)ethoxy)propanoic acid]
< 2000	2000 to 10000	O=C(O)CCOCC1(CNc2cc(-n3ccnc3)c3ccc(Cl)c(Cl)c3n2)CC1 [I-829]
< 2000	< 2000	O=C(O)CCCCCNc1cc(-c2cn[nH]c2)c2ccc(Cl)c(Cl)c2n1 [I-830]
< 2000	2000 to 10000	O=C(O)CCCCCCNc1cc(-n2ccnc2)c2ccc(Cl)c(Cl)c2n1 [I-831]
< 2000	< 2000	CCN(CCOCCC(=O)O)c1cc(-n2ccnc2)c2ccc(Cl)c(Cl)c2n1 [I-832]
< 2000	< 2000	CC(C)N(CCOCCC(=O)O)c1cc(-n2ccnc2)c2ccc(Cl)c(Cl)c2n1 [I-833]

SMILES	IC50 [1] [nM]	IC50 [2] [nM]
O=C(O)CCOCC1CC2CCC1N2c1cc(-n2ccnc2)c2ccc(Cl)c(Cl)c2n1 (stereo not shown) [I-807]	< 2000	< 2000
O=C(O)CCOC[C@H]1CC2CCC1N2c1cc(-n2ccnc2)c2ccc(Cl)c(Cl)c2n1 (stereo partly shown) [I-811]	< 2000	< 2000
